Reference: patent publication US20040259179A1, “Sterol markers as diagnostic tools in the prevention of atherosclerotic diseases and as tools to aid in the selection of agents to be used for the prevention and treatment of atherosclerotic disease” (priority 2003, published 2004)
Marks after values point to notes of the source that are not given here.

Columns and labels:
Format in all cases: in vivo, human
[1] = system: patients with primary hypercholesterolemia; assay: Non-cholesterol sterol analysis of plasma by GC-MS, EZE/ATORVA trial (Example 3); conditions: for effect on concentrations of sitosterol and campesterol (baseline to endpoint), in words: FIG. 11; for effect on concentrations of sitosterol and campesterol (baseline to endpoint), in words / effect on concentrations of cholesterol precursors lathosterol and desmosterol (baseline to endpoint), in words / effect on ratios of sitosterol:cholesterol and campesterol:cholesterol, in words / effect on ratios of lathosterol:cholesterol and desmosterol:cholesterol, in words: pooled doses, 12 weeks; for effect on concentrations of cholesterol precursors lathosterol and desmosterol (baseline to endpoint), in words: FIG. 13; for effect on ratios of sitosterol:cholesterol and campesterol:cholesterol, in words: Table in FIG. 11; for effect on ratios of lathosterol:cholesterol and desmosterol:cholesterol, in words: Table in FIG. 13; for Campesterol Noncholesterols:Cholesterol Ratio: Mean change / Desmosterol Noncholesterols:Cholesterol Ratio: Mean change / Lathosterol Noncholesterols:Cholesterol Ratio: Mean change / Sitosterol Noncholesterols:Cholesterol Ratio: Mean change / Campesterol % chng LSmean (absolute sterol concentrations) / Desmosterol % chng LSmean (absolute sterol concentrations) / Lathosterol % chng LSmean (absolute sterol concentrations) / Sitosterol % chng LSmean (absolute sterol concentrations): baseline to endpoint, 12 weeks daily treatment, EZE 10 mg, ATORVA pooled; for Campesterol % chng LSmean (absolute sterol concentrations) / Desmosterol % chng LSmean (absolute sterol concentrations) / Lathosterol % chng LSmean (absolute sterol concentrations) / Sitosterol % chng LSmean (absolute sterol concentrations): plasma
Experimental: (§1) A post-hoc analysis of a randomized, double-blind, placebo-controlled trial of primary hypercholesterolemia patients (LDL-C 145-250 mg/dl and TG<350 mg/dl) was conducted. Baseline and endpoint samples of 397 patients were analyzed by GCMS
In this trial, following a 4 week placebo lead-in/diet phase, patients with primary hypercholesterolemia (LDL-C 3.8-6.5 mmol/L [145-250 mg/dL] and TG≦4 mmol/L [350 mg/dL]) were randomized to one of the following daily treatments for 12 weeks:
Of 628 patients randomized to treatment in the original study, 397 (63%) had evaluable −70° C. plasma samples for both baseline and endpoint visits.
Concentrations of non-cholesterol sterols were measured by gas chromatography-mass spectrometry (GC-MS).
The primary efficacy parameter was mean percent change in plasma sitosterol concentration from baseline to endpoint comparing EZE/ATORVA (pooled across doses) versus ATORVA (pooled across doses). Other efficacy parameters included mean percent changes in campesterol, lathosterol and desmosterol concentrations as well as mean changes in the ratios of each of these sterols to cholesterol.
(§2) Two-tailed testing was conducted at a=0.05. To compare treatment effects on sterol concentrations and ratios, an ANCOVA model including the fixed effects of treatment, dose, and dose-by-treatment interaction was used with the baseline value as the covariate.

[2] = system: patients with primary hypercholesterolemia; assay: LDL-C and other lipid parameters by treatment, EZE/ATORVA trial (Example 3); conditions: 12 weeks daily treatment, EZE 10 mg, pooled ATORVA 10-80 mg; for Triglycerides (median) % Change (±SE) from Baseline: median and SE from raw data
Experimental: as §1
In this trial, following a 4 week placebo lead-in/diet phase, patients with primary hypercholesterolemia (LDL-C 3.8-6.5 mmol/L [145-250 mg/dL] and TG≦4 mmol/L [350 mg/dL]) were randomized to one of the following daily treatments for 12 weeks: […]

[3] = system: patients with primary hypercholesterolemia; assay: LDL-C and other lipid parameters by treatment, EZE/SIMVA trial (Example 2); conditions: 12 weeks daily treatment, EZE 10 mg, pooled SIMVA 10-80 mg; for Triglycerides (median) % Change (±SE) from Baseline: median and SE from raw data
Experimental: (§3) A post-hoc analysis of a randomized, double-blind, placebo-controlled trial of primary hypercholesterolemia patients (LDL-C 145-250 mg/dl and TG≦350 mg/dl) was conducted to examine the effects of 12 weeks of daily treatment with ezetimibe (EZE) 10 mg, simvastatin (SIMVA) pooled doses 10-80 mg, or EZE 10 mg/SIMVA 10-80 mg (EZE/SIMVA) coadministration (pooled) on concentrations of phytosterols (sitosterol and campesterol) and cholesterol precursors (lathosterol and desmosterol). Baseline and endpoint plasma samples of 578 patients were analyzed by GC-mass spectrometry
Following a 4 week placebo lead-in/diet phase, patients with primary hypercholesterolemia (LDL-C 145-250 mg/dL and TG≦350 mg/dL) were randomized on one of the following daily treatments for 12 weeks: […]

[4] = system: patients with primary hypercholesterolemia; assay: Non-cholesterol sterol analysis of plasma by GC-MS, EZE/SIMVA trial (Example 2); conditions: for effect on concentrations of sitosterol and campesterol (baseline to endpoint), in words: FIG. 6; for Campesterol Ratio: Mean change (sterol:cholesterol) / Desmosterol Ratio: Mean change (sterol:cholesterol) / Lathosterol Ratio: Mean change (sterol:cholesterol) / Sitosterol Ratio: Mean change (sterol:cholesterol) / Campesterol % change (Mean % change) / Desmosterol % change (Mean % change) / Lathosterol % change (Mean % change) / Sitosterol % change (Mean % change): baseline to endpoint, 12 weeks daily treatment, EZE 10 mg; for Campesterol Ratio: Mean change (sterol:cholesterol) / Desmosterol Ratio: Mean change (sterol:cholesterol) / Lathosterol Ratio: Mean change (sterol:cholesterol) / Sitosterol Ratio: Mean change (sterol:cholesterol) / Campesterol % change (Mean % change) / Desmosterol % change (Mean % change) / Lathosterol % change (Mean % change): SIMVA pool of all doses; for Campesterol % change (Mean % change) / Desmosterol % change (Mean % change) / Lathosterol % change (Mean % change) / Sitosterol % change (Mean % change): plasma concentration; for Sitosterol % change (Mean % change): SIMVA pool of all doses 10-80 mg
Experimental: as §3
Following a 4 week placebo lead-in/diet phase, patients with primary hypercholesterolemia (LDL-C 145-250 mg/dL and TG≦350 mg/dL) were randomized on one of the following daily treatments for 12 weeks:
Of 668 patients randomized to treatment in the original study, 578 (86%) had evaluable −70° C. plasma samples for both baseline and endpoint visits. Concentrations of non-cholesterol sterols were measured by gas chromatography-mass spectrometry (GC-MS).
The primary efficacy parameter was mean percent change in plasma sitosterol concentration from baseline to endpoint comparing EZE/SIMVA (pooled across doses) versus SIMVA monotherapy (pooled across doses). Other efficacy parameters included mean percent changes in campesterol, lathosterol and desmosterol concentrations as well as mean changes in the ratios of each of these sterols to cholesterol.
as §2

Row | Compound | effect on concentrations of sitosterol and campesterol (baseline to endpoint), in words [1] | effect on concentrations of cholesterol precursors lathosterol and desmosterol (baseline to endpoint), in words [1] | effect on ratios of sitosterol:cholesterol and campesterol:cholesterol, in words [1] | effect on ratios of lathosterol:cholesterol and desmosterol:cholesterol, in words [1] | Campesterol Noncholesterols:Cholesterol Ratio: Mean change [1] | Desmosterol Noncholesterols:Cholesterol Ratio: Mean change [1] | Lathosterol Noncholesterols:Cholesterol Ratio: Mean change [1] | Sitosterol Noncholesterols:Cholesterol Ratio: Mean change [1] | Campesterol % chng LSmean (absolute sterol concentrations) [1] | Desmosterol % chng LSmean (absolute sterol concentrations) [1] | Lathosterol % chng LSmean (absolute sterol concentrations) [1] | Sitosterol % chng LSmean (absolute sterol concentrations) [1] | HDL-C LS Mean % Change (±SE) from Baseline [2] | LDL-C LS Mean % Change (±SE) from Baseline [2] | Total Cholesterol LS Mean % Change (±SE) from Baseline [2] | Triglycerides (median) % Change (±SE) from Baseline [2] | HDL-C LS Mean % Change (±SE) from Baseline [3] [%] | LDL-C LS Mean % Change (±SE) from Baseline [3] [%] | Total Cholesterol LS Mean % Change (±SE) from Baseline [3] [%] | Triglycerides (median) % Change (±SE) from Baseline [3] [%] | also measured
1 | CC(C)c1c(C(=O)Nc2ccccc2)c(-c2ccccc2)c(-c2ccc(F)cc2)n1CC[C@@H](O)C[C@@H](O)CC(=O)O [ATORVA, atorvastatin] | significantly increased | large, significant reductions | significantly increased | significantly reduced | 128*^† 10^2 mmol/mol | −34.5*^† 10^2 mmol/mol | −69.8*^† 10^2 mmol/mol | 77.4*^† 10^2 mmol/mol | 10.1^† % | −55.4*^† % | −69.0*^† % | 16.1^† % | 5.21 (0.85) % | −43.56 (1.02) % | −32.96 (0.81) % | −25.83 (1.80) % |  |  |  |  | 
2 | O=C1[C@H](CC[C@H](O)c2ccc(F)cc2)[C@@H](c2ccc(O)cc2)N1c1ccc(F)cc1 [EZE, ezetimibe] | large, significant reductions | significantly increased | significantly reduced | increased | −151* 10^2 mmol/mol | 38.1 10^2 mmol/mol | 56.2* 10^2 mmol/mol | −70.1* 10^2 mmol/mol | −58.2* % | 20.6* % | 34.5* % | −53.8* % | 5.36 (1.71) % | −17.10 (2.06) % | −12.97 (1.63) % | −2.86 (4.54) % | 5.5 ± 1.6 | −18.5 ± 1.8 | −13.5 ± 1.4 | −8.6 ± 3.9 | effect on concentrations of sitosterol and campesterol (baseline to endpoint), in words ([4]; pooled doses, 12 weeks): large, significant reductions; effect on concentrations of cholesterol precursors lathosterol and desmosterol (baseline to endpoint), in words ([4]; FIG. 8, pooled doses, 12 weeks): increased; effect on ratios of sitosterol:cholesterol and campesterol:cholesterol, in words ([4]; Table in FIG. 6, pooled doses, 12 weeks): significantly reduced; effect on ratios of lathosterol:cholesterol and desmosterol:cholesterol, in words ([4]; Table in FIG. 8, pooled doses, 12 weeks): significantly increased; Campesterol Ratio: Mean change (sterol:cholesterol) [4]: −78.6* 10^2 mmol/mol; Desmosterol Ratio: Mean change (sterol:cholesterol) [4]: 25.7* 10^2 mmol/mol; Lathosterol Ratio: Mean change (sterol:cholesterol) [4]: 36.8* 10^2 mmol/mol; Sitosterol Ratio: Mean change (sterol:cholesterol) [4]: −37.8* 10^2 mmol/mol; Campesterol % change (Mean % change) [4]: −50.5* %; Desmosterol % change (Mean % change) [4]: 16.1%; Lathosterol % change (Mean % change) [4]: 35.5* %; Sitosterol % change (Mean % change) [4]: −46.5* %
3 | CCC(C)(C)C(=O)O[C@H]1C[C@@H](C)C=C2C=C[C@H](C)[C@H](CC[C@@H]3C[C@@H](O)CC(=O)O3)[C@H]21 [SIMVA, simvastatin] |  |  |  |  |  |  |  |  |  |  |  |  |  |  |  |  | 7.2 ± 0.8 | −37.1 ± 0.9 | −26.8 ± 0.7 | −20.4 ± 1.5 | effect on concentrations of sitosterol and campesterol (baseline to endpoint), in words ([4]; pooled doses, 12 weeks): no significant effect; Campesterol Ratio: Mean change (sterol:cholesterol) [4]: 39.8* 10^2 mmol/mol; Desmosterol Ratio: Mean change (sterol:cholesterol) [4]: −22.8* 10^2 mmol/mol; Lathosterol Ratio: Mean change (sterol:cholesterol) [4]: −37.8* 10^2 mmol/mol; Sitosterol Ratio: Mean change (sterol:cholesterol) [4]: 21.4* 10^2 mmol/mol; Campesterol % change (Mean % change) [4]: −1.6* %; Desmosterol % change (Mean % change) [4]: −48.0* %; Lathosterol % change (Mean % change) [4]: −53.5* %; Sitosterol % change (Mean % change) [4]: −3.3* %
